Patent US20250230193A1, “CYCLIC COMPOUND HAVING SELECTIVE KRAS INHIBITORY EFFECT ON HRAS AND NRAS” (CHUGAI SEIYAKU KABUSHIKI KAISHA, priority 2022, published 2025)
Where a SMILES comes first, the peptide text is derived from it. Bridges are numbered along the chain shown (N, C = ends). [ ]: non-standard residue; d: D form. The star is where a group is joined. hPhe(3-Cl-4-CF3) = N[C@@H](CCc1ccc(C(F)(F)F)c(Cl)c1)C(=O)O; NPrPhe(4-CF3) = CCCN[C@@H](Cc1ccc(C(F)(F)F)cc1)C(=O)O; NMeGly(cPent) = CN[C@H](C(=O)O)C1CCCC1; Pro(4,4-F2) = O=C(O)[C@@H]1CC(F)(F)CN1; Hyp = O=C(O)[C@@H]1C[C@@H](O)CN1; NMeL = CN[C@@H](CC(C)C)C(=O)O; Morpholide = C1CN(*)CCO1; Ac5c = NC1(C(=O)O)CCCC1; Ac4c = NC1(C(=O)O)CCC1; Sar = CNCC(=O)O

Assays:
[1] = target: GDP-bound HRAS wild-type protein (Homo sapiens, UniProt P01112); assay: Binding to HRAS by surface plasmon resonance (SPR), Single Cycle Kinetics; conditions: KD ratio HRAS/KRAS, SPR
Sequence of GDP-bound HRAS wild-type protein (P01112 whole entry): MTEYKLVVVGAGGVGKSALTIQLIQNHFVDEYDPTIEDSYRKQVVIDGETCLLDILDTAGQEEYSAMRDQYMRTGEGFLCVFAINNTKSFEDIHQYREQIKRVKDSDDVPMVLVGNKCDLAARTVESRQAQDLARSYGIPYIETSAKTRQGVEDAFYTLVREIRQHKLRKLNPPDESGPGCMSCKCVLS

[2] = target: GDP-bound NRAS wild-type protein (Homo sapiens, UniProt P01111); assay: Binding to NRAS by surface plasmon resonance (SPR), Single Cycle Kinetics; conditions: KD ratio NRAS/KRAS, SPR
Sequence of GDP-bound NRAS wild-type protein (P01111 whole entry): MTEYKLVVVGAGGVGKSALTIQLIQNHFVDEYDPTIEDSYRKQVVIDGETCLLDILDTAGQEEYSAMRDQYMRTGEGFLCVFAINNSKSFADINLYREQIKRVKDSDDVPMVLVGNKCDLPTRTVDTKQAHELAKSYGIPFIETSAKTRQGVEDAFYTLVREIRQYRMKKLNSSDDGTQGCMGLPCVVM

`CCCN1C(=O)CN(C)C(=O)CN(C)C(=O)[C@H]([C@@H](C)CC)NC(=O)[C@H](CC(C)C)N(C)C(=O)C[C@@H](C(=O)N2CCOCC2)NC(=O)[C@H](C2CCCC2)N(C)C(=O)C2(CCC2)NC(=O)[C@@H]2C[C@@H](OCC)CN2C(=O)[C@H](CCc2ccc(C(F)(F)F)c(Cl)c2)NC(=O)CN(C)C(=O)[C@@H]1Cc1ccc(C(F)(F)F)cc1` [PP0324] ([NMeL]I[Sar][Sar][NPrPhe(4-CF3)][Sar][hPhe(3-Cl-4-CF3)][Hyp](Et)[Ac4c][NMeGly(cPent)]D-Morpholide; lactam N-11) was tested, and the “HRAS/KRAS (ratio of KD for GDP-bound HRAS wild-type to KD for KRAS)” value [1] was “B (a compound having 3 or more and less than 10 is denoted as B)” and the “NRAS/KRAS (ratio of KD for GDP-bound NRAS wild-type to KD for KRAS)” value [2] was “B (a compound having 3 or more and less than 10 is denoted as B)”.

With `CCCN1C(=O)CN(C)C(=O)CNC(=O)[C@H]([C@@H](C)CC)NC(=O)[C@H](CC(C)C)N(C)C(=O)C[C@@H](C(=O)N2CCOCC2)NC(=O)[C@H](C2CCCC2)N(C)C(=O)C2(CCCC2)NC(=O)[C@@H]2CCCN2C(=O)[C@H](CCc2ccc(C(F)(F)F)c(Cl)c2)NC(=O)CN(C)C(=O)[C@@H]1Cc1ccc(C(F)(F)F)cc1` [PP0325] ([NMeL]IG[Sar][NPrPhe(4-CF3)][Sar][hPhe(3-Cl-4-CF3)]P[Ac5c][NMeGly(cPent)]D-Morpholide; lactam N-11) the “HRAS/KRAS (ratio of KD for GDP-bound HRAS wild-type to KD for KRAS)” value [1] was “B (a compound having 3 or more and less than 10 is denoted as B)” and the “NRAS/KRAS (ratio of KD for GDP-bound NRAS wild-type to KD for KRAS)” value [2] was “B (a compound having 3 or more and less than 10 is denoted as B)”.

`CCCN1C(=O)CN(C)C(=O)CNC(=O)[C@H]([C@@H](C)CC)NC(=O)[C@H](CC(C)C)N(C)C(=O)C[C@@H](C(=O)N2CCOCC2)NC(=O)[C@H](C2CCCC2)N(C)C(=O)C2(CCC2)NC(=O)[C@@H]2CCCN2C(=O)[C@H](CCc2ccc(C(F)(F)F)c(Cl)c2)NC(=O)CN(C)C(=O)[C@@H]1Cc1ccc(C(F)(F)F)cc1` [PP0326] ([NMeL]IG[Sar][NPrPhe(4-CF3)][Sar][hPhe(3-Cl-4-CF3)]P[Ac4c][NMeGly(cPent)]D-Morpholide; lactam N-11) was tested, and the “HRAS/KRAS (ratio of KD for GDP-bound HRAS wild-type to KD for KRAS)” value [1] was “B (a compound having 3 or more and less than 10 is denoted as B)” and the “NRAS/KRAS (ratio of KD for GDP-bound NRAS wild-type to KD for KRAS)” value [2] was “B (a compound having 3 or more and less than 10 is denoted as B)”.

For `CCCN1C(=O)CN(C)C(=O)CNC(=O)[C@H]([C@@H](C)CC)NC(=O)[C@H](CC(C)C)N(C)C(=O)C[C@@H](C(=O)N2CCOCC2)NC(=O)[C@H](C2CCCC2)N(C)C(=O)C2(CCCC2)NC(=O)[C@@H]2CC(F)(F)CN2C(=O)[C@H](CCc2ccc(C(F)(F)F)c(Cl)c2)NC(=O)CN(C)C(=O)[C@@H]1Cc1ccc(C(F)(F)F)cc1` [PP0327] ([NMeL]IG[Sar][NPrPhe(4-CF3)][Sar][hPhe(3-Cl-4-CF3)][Pro(4,4-F2)][Ac5c][NMeGly(cPent)]D-Morpholide; lactam N-11), the “HRAS/KRAS (ratio of KD for GDP-bound HRAS wild-type to KD for KRAS)” value [1] was “B (a compound having 3 or more and less than 10 is denoted as B)” and the “NRAS/KRAS (ratio of KD for GDP-bound NRAS wild-type to KD for KRAS)” value [2] was “B (a compound having 3 or more and less than 10 is denoted as B)”.

`CCCN1C(=O)CN(C)C(=O)CNC(=O)[C@H]([C@@H](C)CC)NC(=O)[C@H](CC(C)C)N(C)C(=O)C[C@@H](C(=O)N2CCOCC2)NC(=O)[C@H](C2CCCC2)N(C)C(=O)C2(CCC2)NC(=O)[C@@H]2CC(F)(F)CN2C(=O)[C@H](CCc2ccc(C(F)(F)F)c(Cl)c2)NC(=O)CN(C)C(=O)[C@@H]1Cc1ccc(C(F)(F)F)cc1` [PP0328] ([NMeL]IG[Sar][NPrPhe(4-CF3)][Sar][hPhe(3-Cl-4-CF3)][Pro(4,4-F2)][Ac4c][NMeGly(cPent)]D-Morpholide; lactam N-11) was tested, and the “HRAS/KRAS (ratio of KD for GDP-bound HRAS wild-type to KD for KRAS)” value [1] was “B (a compound having 3 or more and less than 10 is denoted as B)” and the “NRAS/KRAS (ratio of KD for GDP-bound NRAS wild-type to KD for KRAS)” value [2] was “B (a compound having 3 or more and less than 10 is denoted as B)”.
